ChEMBL document CHEMBL3351412, “Design, synthesis and biological evaluation of β-boswellic acid based HDAC inhibitors as inducers of cancer cell death” (Bioorg Med Chem Lett, 2014)
pIC50: −log10 of the molar value. Active and inactive are the calls of the source. No cut-off for these calls is given here.

Tests used:
[1] = Cytotoxicity against human HL60 cells; type: functional, cell-based; settings: HL-60
[2] = tested on: A549; assay: Cytotoxicity against human A549 cells; type: functional, cell-based
[3] = Cytotoxicity against human HCT116 cells; type: functional, cell-based; settings: HCT-116
[4] = Cytotoxicity against human MIAPaCa2 cells; type: functional, cell-based; settings: MIA PaCa-2
[5] = tested on: MCF7; assay: Cytotoxicity against human MCF7 cells; type: functional, cell-based
[6] = Cytotoxicity against human FR2 cells; type: cell-based
[7] = target: T1, Histone deacetylase (Homo sapiens) (UniProt Q13547+O15379+Q9UBN7+Q92769+Q9UQL6+Q8WUI4+Q9BY41+Q96DB2+P56524+Q9UKV0+Q969S8); assay: Inhibition of HDAC (unknown origin) at 50 uM; type: protein assay
[8] = target: T1, Histone deacetylase (Homo sapiens); assay: Inhibition of HDAC (unknown origin) at 30 uM; type: protein assay
[9] = target: Histone deacetylase; assay: Inhibition of HDAC (unknown origin); type: protein assay, Homo sapiens
[10] = Cell cycle arrest in human HL60 cells assessed as accumulation at sub-G1 phase at 1 uM by propidium iodide staining-based flow cytometry (reference value: 2.1%); type: functional; settings: HL-60
[11] = Cell cycle arrest in human HL60 cells assessed as accumulation at G1 phase at 1 uM by propidium iodide staining-based flow cytometry (reference value: 58.9%); type: functional; settings: HL-60
[12] = Cell cycle arrest in human HL60 cells assessed as accumulation at S phase at 1 uM by propidium iodide staining-based flow cytometry (reference value: 17.3%); type: functional; settings: HL-60
[13] = Cell cycle arrest in human HL60 cells assessed as accumulation at G2/M phase at 1 uM by propidium iodide staining-based flow cytometry (reference value: 21.3%); type: functional; settings: HL-60
[14] = Cell cycle arrest in human HL60 cells assessed as accumulation at sub-G1 phase at 5 uM by propidium iodide staining-based flow cytometry (reference value: 2.1%); type: functional; settings: HL-60
[15] = Cell cycle arrest in human HL60 cells assessed as accumulation at G1 phase at 5 uM by propidium iodide staining-based flow cytometry (reference value: 58.9%); type: functional; settings: HL-60
[16] = Cell cycle arrest in human HL60 cells assessed as accumulation at S phase at 5 uM by propidium iodide staining-based flow cytometry (reference value: 17.3%); type: functional; settings: HL-60
[17] = Cell cycle arrest in human HL60 cells assessed as accumulation at G2/M phase at 5 uM by propidium iodide staining-based flow cytometry (reference value: 21.3%); type: functional; settings: HL-60
[18] = tested on: HL-60; assay: Induction of apoptosis in human HL60 cells assessed as loss of mitochondrial membrane potential in P5 quadrant at 1 uM by Rhodamine123 assay (reference value: 3.4%); type: functional
[19] = tested on: HL-60; assay: Induction of apoptosis in human HL60 cells assessed as loss of mitochondrial membrane potential in P4 quadrant at 1 uM by Rhodamine123 assay (reference value: 96.6%); type: functional
[20] = tested on: HL-60; assay: Induction of apoptosis in human HL60 cells assessed as loss of mitochondrial membrane potential in P5 quadrant at 5 uM by Rhodamine123 assay (reference value: 3.4%); type: functional
[21] = tested on: HL-60; assay: Induction of apoptosis in human HL60 cells assessed as loss of mitochondrial membrane potential in P4 quadrant at 5 uM by Rhodamine123 assay (reference value: 96.6%); type: functional
[22] = target: T1, Histone deacetylase (Homo sapiens); assay: Inhibition of HDAC (unknown origin) at 20 uM; type: protein assay
[23] = target: T1, Histone deacetylase (Homo sapiens); assay: Inhibition of HDAC (unknown origin) at 10 uM; type: protein assay
[24] = target: T1, Histone deacetylase (Homo sapiens); assay: Inhibition of HDAC (unknown origin) at 1 uM; type: protein assay
[25] = Cell cycle arrest in human HL60 cells at 5 to 10 uM by propidium iodide staining-based flow cytometry; type: functional; settings: HL-60

Structure (SMILES)	inhibition [7] [%]	inhibition [8] [%]	IC50 [9] [µM]	pIC50 [1]	pIC50 [2]	pIC50 [3]	pIC50 [4]	pIC50 [5]	pIC50 [6]	Activity [10] [%]	Activity [11] [%]	Activity [12] [%]	Activity [13] [%]	Activity [18] [%]	Activity [19] [%]	also measured
C[C@H]1[C@H](C)CC[C@]2(C)CC[C@]3(C)C(=CC(=O)[C@@H]4[C@@]5(C)CC[C@@H](O)[C@](C)(NC(=O)CCCCCCCC(=O)NO)[C@@H]5CC[C@]43C)[C@H]12	52	31	48	< 4.70	< 4.70	4.92	< 4.70	4.96	< 4.70							
C[C@H]1[C@H](C)CC[C@]2(C)CC[C@]3(C)C(=CC(=O)[C@@H]4[C@@]5(C)CC[C@@H](O)[C@](C)(NC(=O)CCCC(=O)NO)[C@@H]5CC[C@]43C)[C@H]12	88	86	6	5.80	4.89	4.82	4.82	5.15	5.72	6.1	74.5	8	10.7	6.7	93.3	inhibition [22]: 70%; inhibition [23]: 65%; inhibition [24]: 23%; Activity [14]: 92.2%; Activity [15]: 7.2%; Activity [16]: 0.7%; Activity [17]: 7.1%; Activity [25]: Active; Activity [20]: 96.4%; Activity [21]: 3.6%
O=C(CCCCCCC(=O)Nc1ccccc1)NO [VORINOSTAT]										2.8	65.3	14	17.1	4	96	

Second part, led by results:

inhibition [7] [%]	inhibition [8] [%]	IC50 [9] [µM]	Structure (SMILES)	pIC50 [1]	pIC50 [2]	pIC50 [3]	pIC50 [4]	pIC50 [5]	pIC50 [6]	Activity [10] [%]	Activity [11] [%]	Activity [12] [%]	Activity [13] [%]	Activity [18] [%]	Activity [19] [%]	also measured
56	50	30	C[C@H]1[C@H](C)CC[C@]2(C)CC[C@]3(C)C(=CC[C@@H]4[C@@]5(C)CC[C@@H](O)[C@](C)(NC(=O)CCCCCCC(=O)NO)[C@@H]5CC[C@]43C)[C@H]12	< 4.70	< 4.70	< 4.70	< 4.70	< 4.70	< 4.70	7.4	57.8	16.8	16.8	3.2	96.8	Activity [14]: 4.5%; Activity [15]: 60.6%; Activity [16]: 15.7%; Activity [17]: 18.6%; Activity [20]: 29.8%; Activity [21]: 70.2%
54	46	34	C[C@H]1[C@H](C)CC[C@]2(C)CC[C@]3(C)C(=CC[C@@H]4[C@@]5(C)CC[C@@H](O)[C@](C)(NC(=O)CCCC(=O)NO)[C@@H]5CC[C@]43C)[C@H]12	4.93	< 4.70	< 4.70	5.06	5.44	< 4.70							
39	12	> 50	C[C@H]1[C@H](C)CC[C@]2(C)CC[C@]3(C)C(=CC(=O)[C@@H]4[C@@]5(C)CC[C@@H](O)[C@](C)(NC(=O)CCCCCCC(=O)NO)[C@@H]5CC[C@]43C)[C@H]12	5.52	5.16	5.28	5.06	5.40	5.37							
45	34	> 50	C[C@H]1[C@H](C)CC[C@]2(C)CC[C@]3(C)C(=CC[C@@H]4[C@@]5(C)CC[C@@H](O)[C@](C)(NC(=O)CCCCCCCC(=O)NO)[C@@H]5CC[C@]43C)[C@H]12	4.91	4.82	4.93	4.92	5.19	< 4.70							
